According to US5681832A, “Aroylaniline compounds, pharmaceutical compositions, and methods of using same to inhibit viral activity” (priority 1995, dated 1997):
Structures can show the parent of a compound that is named as a salt. Where two headings read alike, the source gives them in different places.

What was measured:
[1] = system: T4 lymphocytes (CEM cell line); assay: toxicity control: survival of uninfected T4 lymphocytes (CEM cell line) treated with compound (growth inhibition); format: cell-based; details: Homo sapiens, CCRF-CEM; for IC50: 144 h, read-out: IC50 (Molar); for activity at 0.0635 µM / activity at 0.2 µM / activity at 0.634 µM / activity at 2 µM / activity at 6.33 µM / activity at 20 µM / activity at 63.2 µM / activity at 200 µM: read-out: Percent of Control, Uninfected
Experimental: (§1) 1. Candidate agent is dissolved in dimethyl sulfoxide (unless otherwise instructed) and then diluted 1:100 in cell culture medium before preparing serial half-log10 dilutions which are then to 96-well microfilter plates. T4 lymphocytes (CEM cell line) are added, and after a brief interval HIV-1 is added to all wells, resulting in a 1:200 final dilution […]. Uninfected cells with the compound serve as a toxicity control, and infected and uninfected cells without the compound serve as basic controls.
(§2) 2. Cultures are incubated at 37° C. in a 5% carbon dioxide atmosphere for 6 days.
(§3) 3. The tetrazolium salt, XTT, is added to all wells, and cultures are incubated to allow formazan color development by viable cells.
(§4) 4. Individual wells are analyzed spectrophotometrically to quantitate formazan production, and in addition are viewed microscopically for detection of viable cells and confirmation of protective activity.
(§5) 5. Drug-tested virus-infected cells are compared with drug-treated noninfected cells and with other appropriate controls (untreated infected and untreated noninfected cells, drug-containing wells without cells, etc.) on the same plate.
(§6) FIGS. 1 to 6 display a plot of the log10 of the concentrations (as μg/mL or molar as shown) of the aroylaniline compounds, Compounds 1, 3, 13, 14, 29 and 32, against the measured test values expressed as a percentage of the uninfected, untreated control values. The solid line depicts the percentage of surviving HIV-infected cells treated with sample (at the indicated concentration) relative to uninfected, untreated controls. Thus, the solid line expresses the anti-HIV activity of the compound. The dashed line depicts the percentage of surviving uninfected cells treated with the compound relative to the same uninfected, untreated controls. Thus, the dashed line expresses the growth inhibitory properties of the compound. The viral cytopathic effect […] is indicated by a dotted reference line. […] Survival values of this parameter less than 50% are considered acceptable in the current protocol. Approximate values for 50% effective concentration (EC50) have been calculated for each test and are set forth for these Compounds in Tables 2-7, respectively.

HIV-1 = assay: in vitro anti-HIV screening (NCI XTT soluble-formazan assay, protection of HIV-1-infected CEM T4 lymphocytes from cytolysis); format: cell-based; details: for EC50 / inhibition at 63.2 µM / inhibition at 200 µM / inhibition at 20 µM / inhibition at 2 µM / inhibition at 0.2 µM / inhibition at 6.33 µM / inhibition at 0.634 µM / inhibition at 0.0635 µM: Human immunodeficiency virus 1, CCRF-CEM; for EC50: 144 h, HIV-1-infected CEM cells, 6 days, approximate values, read-out: EC50 (Molar), 50% effective concentration; for inhibition at 63.2 µM / inhibition at 200 µM / inhibition at 20 µM / inhibition at 2 µM / inhibition at 0.2 µM / inhibition at 6.33 µM / inhibition at 0.634 µM / inhibition at 0.0635 µM: read-out: Percent of Protection; for inhibition at 200 µM / activity at 200 µM: 2.00 × 10^-4 Molar; for inhibition at 20 µM / activity at 20 µM: 2.00 × 10^-5 Molar; for inhibition at 2 µM / activity at 2 µM: 2.00 × 10^-6 Molar; for inhibition at 0.2 µM / activity at 0.2 µM: 2.00 × 10^-7 Molar; for inhibition at 6.33 µM / activity at 6.33 µM: 6.33 × 10^-6 Molar; for inhibition at 0.634 µM / activity at 0.634 µM: 6.34 × 10^-7 Molar; for inhibition at 0.0635 µM / activity at 0.0635 µM: 6.35 × 10^-8 Molar; for TI50 (IC/EC), therapeutic index: IC50/EC50; for Conclusion: NCI anti-HIV screen
Excerpt: The aroylaniline compounds of the present invention were subjected to in vitro screening to determine their anti-HIV activity.
The National Cancer Institute's procedure for testing for agents active against Human Immunodeficiency Virus (HIV) (Weislow, O. W. et al., "New soluble-formazan assay for HIV-1 cytopathic effects: application to high-flux screening of synthetic and natural products for AIDS-antiviral activity," J. Natl Cancer Inst., 81, 577-586 (1989)) is designed to detect agents acting at any stage of the virus reproductive cycle. The assay includes the killing of T4 lymphocytes by HIV. Pursuant to the test, small amounts of HIV are added to cells, and a complete cycle of virus reproduction is necessary to obtain the required cell killing. Agents that interact with virions, cells, or virus gene-products to interfere with viral activities will protect cells from cytolysis. The system is thus designed to detect anti-HIV activity. However, compounds that are chemically labile or are rapidly metabolized in the culture conditions may not show activity in this screen. All tests are compared with at least one positive (e.g., AZT-treated) control done at the same time under identical conditions.
as §1, §2, §3, §4, §5
6. Data are reviewed in comparison with other tests done at the same time and a determination about activity is made.
The aroylaniline compounds of the present invention were tested for anti-HIV activity according to the above procedure. FIGS. 1-6 represent test results of the aroylaniline compounds of Compounds 1, 3, 13, 14, 29 and 32.
as §6

[2] = Human immunodeficiency virus 1, CEM-T4, read-out: Percent of Control, Infected
[3] = Human immunodeficiency virus 1, CEM-T4, 6.32 × 10^-5 Molar, read-out: Percent of Control, Infected

Compound	IC50 [1]	activity at 0.0635 µM [1]	activity at 0.2 µM [1]	activity at 0.634 µM [1]	activity at 2 µM [1]	activity at 6.33 µM [1]	activity at 20 µM [1]	activity at 63.2 µM [1]	activity at 200 µM [1]	EC50 (HIV-1)	inhibition at 200 µM (HIV-1)	inhibition at 20 µM (HIV-1)	inhibition at 2 µM (HIV-1)	inhibition at 0.2 µM (HIV-1)	inhibition at 6.33 µM (HIV-1)	inhibition at 0.634 µM (HIV-1)	inhibition at 0.0635 µM (HIV-1)	activity at 200 µM (HIV-1; [2])	activity at 20 µM (HIV-1; [2])	activity at 2 µM (HIV-1; [2])	other results
O=C(O)CCSCc1cc(C(=O)Nc2ccc(C=Cc3ccc(NC(=O)c4cc(CSCCC(=O)O)c5cccnc5c4O)cc3S(=O)(=O)O)c(S(=O)(=O)O)c2)c(O)c2ncccc12 [Compound 13, 4,4'-di[5-(2-carboxyethylthiomethyl)-8-hydroxy-7-quinolinecarboxyamido]stilbene-2,2'-disulfonic acid tetrasodium salt]	29 µM	86.4%	90.5%	92.2%	111%	118%	73.7%	0.37%	2.05%	1.05 µM	-28%	67.5%	84.4%	-17.9%	134%	24.6%	15.6%	2.7%	75.3%	88.1%	inhibition at 63.2 µM (HIV-1): 29.4%; activity at 63.2 µM (HIV-1; [2]): 1.63%; activity at 0.2 µM (HIV-1; [2]): 10.4%; activity at 6.33 µM (HIV-1; [2]): 126%; activity at 0.634 µM (HIV-1; [2]): 42.7%; activity at 0.0635 µM (HIV-1; [2]): 35.8%; TI50 (IC/EC), therapeutic index (HIV-1): 2.78 × 10^+1; Conclusion (HIV-1): CONFIRMED ACTIVE
O=C(O)CSCc1cc(C(=O)Nc2ccc(C=Cc3ccc(NC(=O)c4cc(CSCC(=O)O)c5cccnc5c4O)cc3S(=O)(=O)O)c(S(=O)(=O)O)c2)c(O)c2ncccc12 [Compound 14]	16.5 µM	80.2%	88.9%	122%	206%	221%	15.5%	2.52%	-0.84%	0.805 µM	27.6%	16.6%	147%	17.6%	151%	25%	16%	29.8%	19.1%	146%	inhibition at 63.2 µM (HIV-1; 6.32 × 10^-5 Molar): 6.56%; activity at 0.2 µM (HIV-1; [2]): 20%; activity at 63.2 µM (HIV-1; [3]): 9.36%; activity at 6.33 µM (HIV-1; [2]): 149%; activity at 0.634 µM (HIV-1; [2]): 27.2%; activity at 0.0635 µM (HIV-1; [2]): 18.5%; TI50 (IC/EC), therapeutic index (HIV-1): 2.05 × 10^+2; Conclusion (HIV-1): CONFIRMED ACTIVE
O=C([O-])c1c(O)ccc(O)c1C(=O)Nc1ccc(C=Cc2ccc(NC(=O)c3c(O)ccc(O)c3C(=O)[O-])cc2S(=O)(=O)O)c(S(=O)(=O)O)c1.[Na+].[Na+] [Compound 29, 4,4'-di(2-carboxy-3,6-dihydroxybenzamido)stilbene-2,2'-disulfonic acid disodium salt]	> 220 µM	93.2%	93.8%	92.8%	95.2%	96.7%	99%	100%	93%	12.5 µM	79.7%	83.3%	0.58%	-1.09%	2.47%	-0.52%	-3.31%	81.1%	84.5%	7.54%	inhibition at 63.2 µM (HIV-1; 6.32 × 10^-5 Molar): 92.7%; activity at 0.2 µM (HIV-1; [2]): 5.99%; activity at 63.2 µM (HIV-1; [3]): 93.2%; activity at 6.33 µM (HIV-1; [2]): 9.3%; activity at 0.634 µM (HIV-1; [2]): 6.52%; activity at 0.0635 µM (HIV-1; [2]): 3.92%; TI50 (IC/EC), therapeutic index (HIV-1): > 1.61 × 10^+1; Conclusion (HIV-1): CONFIRMED ACTIVE
